# Laboratory results reported in US20120083525A1, “COMPOSITION FOR PREVENTING OR TREATING OBESITY-RELATED DISEASES MEDIATED BY THE ACTIVATION OF AMPK AND INCLUDING 2,5-BIS-ARYL-3,4-DIMETHYLTETRAHYDROFURAN LIGNANS AS ACTIVE INGREDIENTS” (Amorepacific Corporation, priority 2009, published 2012).
# System: high fat diet-induced obese model
# Assay: Anti-obesity effect in diet-induced obese (DIO) model, body weight change
# Conditions: 100 mg/kg/day oral
# Description: For the oral administration, the substances were dissolved in a 5% aqueous solution of methyl cellulose (Sigma Co., USA). 7-week-old male C57BL/6J mice were prepared for test, with 10 heads per group. After an accommodation period of 1 week, the mice were kept in individual cages and maintained with 12/12-hr light-dark cycles (lighting from 7 am to 5 pm). […] The corresponding substance was orally administered once a day at regular hours (10 am) for 8 weeks. Body weight was measured once a week (11 am). After 8 weeks of administration, the body weight of the test groups and the control group was analyzed.
compound,measurement,setting,value
"COc1cc(C[C@H](C)[C@H](C)Cc2ccc3c(c2)OCO3)ccc1O [Macelignan, macelignan]","Body weight change (g) after oral administration, 14 days",14 days,4.00 g
same,"Body weight change (g) after oral administration, 21 days",21 days,5.31 g
same,"Body weight change (g) after oral administration, 28 days",28 days,6.52 g
same,"Body weight change (g) after oral administration, 35 days",35 days,8.91 g
same,"Body weight change (g) after oral administration, 42 days",42 days,9.70 g
same,"Body weight change (g) after oral administration, 49 days",49 days,10.63 g
